In patent publication US20140171431A1, “AZOLE HETEROCYCLIC COMPOUND, PREPARATION METHOD, PHARMACEUTICAL COMPOSITION AND USE” (priority 2011, published 2014):
Read-outs that look alike come from different tables or passages of the source.

How the values were obtained:
Lp-PLA2 in human serum = target: T1, Lp-PLA2 in human serum (Homo sapiens, UniProt Q13093); assay: In vitro inhibitory activity towards the enzyme Lp-PLA2 in human serum, [3H]PAF substrate; type: biochemical; details: for inhibition at 0.01 µM: 10 nM; for inhibition at 0.1 µM: 100 nM
T1 construct: from tissue
T1 sequence (Q13093 22-441): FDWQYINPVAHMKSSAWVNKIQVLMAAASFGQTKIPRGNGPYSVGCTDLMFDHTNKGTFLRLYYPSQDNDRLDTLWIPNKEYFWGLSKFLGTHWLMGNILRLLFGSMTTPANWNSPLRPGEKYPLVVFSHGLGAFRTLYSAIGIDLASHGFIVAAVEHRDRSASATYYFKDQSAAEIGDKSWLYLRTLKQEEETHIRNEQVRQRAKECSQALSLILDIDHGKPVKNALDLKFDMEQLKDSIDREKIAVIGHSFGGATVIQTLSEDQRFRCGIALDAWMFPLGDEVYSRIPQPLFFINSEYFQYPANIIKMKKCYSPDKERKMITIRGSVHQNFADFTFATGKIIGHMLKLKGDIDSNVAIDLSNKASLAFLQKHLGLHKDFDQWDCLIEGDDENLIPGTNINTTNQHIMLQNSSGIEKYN
Procedure: The activities of compounds were measured using [^3H] labeled platelet activating factor ([^3H]PAF, Perkinelmer, Lot NET910) as the substrate. The reaction was carried out in a system containing 50 mmol/l HEPES and 150 mmol/l NaCl (pH 7.4) in a total volume of 200 μl. First, 10 μL human plasma and 10 μl DMSO solution of the test compound were added to the system and preincubated for 10 min at 37° C. Then 20 nM [^3H]PAF was added as listed in table 1 to start the reaction and incubated for a further 10 min at 37° C. After that, 600 μl of CHCl3/MeOH (2:1) was added and the resulting mixture was mixed with vortex. After settled for a while, the mixture was centrifugated at 12000×g for 15 min. The supernatant was transferred to a new tube and 200 μl of CHCl3 was added and mixed by vortexing. The mixture was settled or centrifugated for 2 min. A 100 μl portion of the supernatant was then collected for radioactivity intensity measurement.

Lp-PLA2 in rabbit serum = target: T2, Lp-PLA2 in rabbit serum (Oryctolagus cuniculus, UniProt G1SE06); assay: In vitro inhibitory activity towards the enzyme Lp-PLA2 in rabbit serum, [3H]PAF substrate; type: biochemical; details: for inhibition at 0.1 µM: 100 nM
T2 construct: from tissue; host or cells: rabbit serum
T2 sequence (G1SE06 22-423): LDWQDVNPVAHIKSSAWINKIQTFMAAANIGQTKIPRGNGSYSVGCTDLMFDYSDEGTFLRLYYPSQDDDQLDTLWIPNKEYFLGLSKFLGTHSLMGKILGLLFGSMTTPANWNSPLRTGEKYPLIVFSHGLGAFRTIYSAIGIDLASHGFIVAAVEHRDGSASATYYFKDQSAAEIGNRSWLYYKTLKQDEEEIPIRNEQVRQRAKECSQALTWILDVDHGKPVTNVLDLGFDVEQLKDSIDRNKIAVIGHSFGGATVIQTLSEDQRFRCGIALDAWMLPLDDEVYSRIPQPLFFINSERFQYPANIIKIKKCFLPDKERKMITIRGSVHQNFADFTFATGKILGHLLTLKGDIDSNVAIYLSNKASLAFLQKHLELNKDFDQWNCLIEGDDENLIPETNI
Procedure: The activities of compounds were measured using [^3H] labeled platelet activating factor ([^3H]PAF, Perkinelmer, Lot NET910) as the substrate. The reaction was carried out in a system containing 50 mmol/L HEPES and 150 mmol/L NaCl (pH 7.4) in a total volume of 200 μl. First, 10 μL rabbit serum and 10 μl DMSO solution of the test compound were added to the system and preincubated for 10 min at 37° C. Then 20 nM [^3H]PAF was added as listed in table 1 to start the reaction and incubated for a further 10 min at 37° C. After that, 600 μl of CHCl3/MeOH (2:1) was added and the resulting mixture was vortex mixed and the reaction was stopped. After settled for a while, the mixture was centrifugated at 12000×g for 15 min. The supernatant was transferred to a new tube and 200 μl of CHCl3 was added. The mixture was mixed by vortexing and then settled or centrifugated for 2 min. A 100 μl portion of the supernatant was then collected for radioactivity intensity measurement.
The inhibition rate was determined by the following equation:
Inhibitory rate (%)=1−(DPMcompound tube−DPMblank tube)/(DPMcontrol tube−DPMblank tube)*100%
(Note: DPM is radioactivity intensity unit.)

[1] = human serum, read-out: inhibition, %
[2] = rabbit serum, read-out: inhibition, %
[3] = read-out: inhibitory rate towards the human serum derived Lp-PLA2 enzyme

Row | Structure (SMILES) | inhibition at 0.01 µM (Lp-PLA2 in human serum; [1]) [%] | inhibition at 0.1 µM (Lp-PLA2 in rabbit serum; [2]) [%] | inhibition at 1 µM (Lp-PLA2 in rabbit serum; rabbit serum) [%] | also measured
1 | CCN(CC)CCN(CC(=O)O)Cc1nnc(Cn2c(SCc3ccc(F)cc3)nc(=O)c3c2CCC3)n1Cc1ccc(-c2ccc(C(F)(F)F)cc2)cc1 [Example 135, 2-((2-(diethylamino)ethyl)((3-((2-(4-fluorobenzylthio)-4-oxo-4,5,6,7-tetrahydro-1H-cyclopenta[d]pyrimidin-1-yl)methyl)-4-((4′-(trifluoromethyl)biphenyl-4-yl)methyl)-4H-1,2,4-triazol-5-yl)methyl)amino)acetic acid] | 66 | 83 | – | –
2 | CN(C)C1CCN(Cc2nnc(Cn3c(SCc4ccc(F)cc4)nc(=O)c4c3CCC4)n2Cc2ccc(-c3ccc(C(F)(F)F)cc3)cc2)CC1 [Example 103, 1-((5-((4-(dimethylamino)piperidin-1-yl)methyl)-4-((4′-(trifluoromethyl)biphenyl-4-yl)methyl)-4H-1,2,4-triazol-3-yl)methyl)-2-(4-fluorobenzylthio)-6,7-dihydro-1-cyclopenta[d]pyrimidin-4(5H)-one] | 71 | 82 | – | inhibition at 0.1 µM (Lp-PLA2 in human serum; human serum): 98%
3 | CCN(CC)CCN(C)Cc1onc(Cn2c(SCc3ccc(F)cc3)nc(=O)c3c2CCC3)c1Cc1ccc(-c2ccc(C(F)(F)F)cc2)cc1 [Example 159, 1-((5-(((2-(diethylamino)ethyl)(methyl)amino)methyl)-4-((4′-(trifluoromethyl)biphenyl-4-yl)methyl)isoxazol-3-yl)methyl)-2-(4-fluorobenzylthio)-6,7-dihydro-1H-cyclopenta[d]pyrimidin-4(5H)-one] | 100 | 97 | – | inhibition at 0.01 µM (Lp-PLA2 in human serum; [3]): > 80%; inhibition at 0.1 µM (Lp-PLA2 in rabbit serum; read-out: inhibitory rate towards the rabbit serum derived Lp-PLA2 enzyme): > 90%
4 | CCCC/C=C/N1C(Cn2c(SCc3ccc(F)cc3)nc(=O)c3c2CCC3)=NOC1CCCCCCC (centres unmarked) [Example 18, (E)-2-(4-fluorobenzylthio)-1-((5-n-heptyl-4-(n-hex-1-enyl)-4,5-dihydro-1,2,4-ox-adiazol-3-yl)methyl)-6,7-di-hydro-1H-cyclopenta[d]py-rimidin-4(5H)-one] | – | – | 7.4 | inhibition at 10 µM (Lp-PLA2 in rabbit serum; rabbit serum): 41.9%
5 | O=c1nc(SCc2ccc(F)cc2)n(CC2=NOC(c3ccc(-c4ccc(C(F)(F)F)cc4)cc3)N2CCN2CCCCC2)c2c1CCC2 (centres unmarked) [Example 20, 2-(4-fluorobenzylthio)-1-((4-(2-(piperidin-1-yl)ethyl)-5-(4′-(trifluoromethyl)biphenyl-4-yl)-4,5-dihydro-1,2,4-oxadiazol-3-yl)methyl)-6,7-dihydro-1H-cyclopenta[d]pyrimidin-4(5H)-one] | – | – | 31 | inhibition at 10 µM (Lp-PLA2 in rabbit serum; rabbit serum): 86.6%
6 | CCCCCCCC1NC(Cn2c(SCc3ccc(F)cc3)nc(=O)c3c2CCC3)=NO1 (centres unmarked) [Example 1, 2-(4-fluorobenzylthio)-1-((5-n-heptyl-4,5-dihydro-1,2,4-oxadiazol-3-yl)methyl)-6,7-dihydro-1H-cyclopenta[d]pyrimidin-4(5H)-one] | – | – | 10 | inhibition at 10 µM (Lp-PLA2 in rabbit serum; rabbit serum): 62.6%
7 | CC(C)(C(=O)O)N1CCN(Cc2nnc(Cn3c(SCc4ccc(F)cc4)nc(=O)c4c3CCC4)n2Cc2ccc(-c3ccc(C(F)(F)F)cc3)cc2)CC1 [Example 89, 2-(4-((5-((2-(4-fluorobenzylthio)-4-oxo-4,5,6,7-tetrahydro-1H-cyclopenta[d]pyrimidin-1-yl)methyl)-4-((4′-(trifluoromethyl)biphenyl-4-yl)methyl)-4H-1,2,4-triazol-3-yl)methyl)piperazin-1-yl)-2-methylpropanoic acid] | – | 13.4 | – | –
8 | Cc1cnc(Cn2cc(Cc3cnn(C)c3)c(=O)nc2SCc2ccc(F)cc2)n1Cc1ccc(-c2ccc(C(F)(F)F)cc2)cc1 [Example 41, 2-(4-fluorobenzylthio)-1-((5-methyl-1-((4′-(trifluoromethyl)biphenyl-4-yl)methyl)-1H-imidazol-2-yl)methyl)-5-((1-methyl-1H-pyrazol-4-yl)methyl)pyrimidin-4(1H)-one] | – | 12.6 | 64.9 | –

Now from value to molecule, other results behind:

Row | inhibition at 0.01 µM (Lp-PLA2 in human serum; [1]) [%] | inhibition at 0.1 µM (Lp-PLA2 in rabbit serum; [2]) [%] | inhibition at 1 µM (Lp-PLA2 in rabbit serum; rabbit serum) [%] | Structure (SMILES) | also measured
9 | 56 | 63 | – | O=C1NCCN1Cc1nnc(Cn2c(SCc3ccc(F)cc3)nc(=O)c3c2CCC3)n1Cc1ccc(-c2ccc(C(F)(F)F)cc2)cc1 [Example 112, 2-(4-fluorobenzylthio)-1-((5-((2-oxoimidazolidin-1-yl)methyl)-4-((4′-(trifluoromethyl)biphenyl-4-yl)methyl)-4H-1,2,4-triazol-3-yl)methyl)-6,7-dihydro-1H-cyclopenta[d]pyrimidin-4(5H)-one] | inhibition at 0.1 µM (Lp-PLA2 in human serum; human serum): 87%
10 | 72 | 98 | – | CN(C)CCNCc1nnc(Cn2c(SCc3ccc(F)cc3)nc(=O)c3c2CCC3)n1Cc1ccc(-c2ccc(C(F)(F)F)cc2)cc1 [Example 105, 1-((5-((2-(dimethylamino)ethylamino)methyl)-4-((4′-(trifluoromethyl)biphenyl-4-yl)methyl)-4H-1,2,4-triazol-3-yl)methyl)-2-(4-fluorobenzylthio)-6,7-dihydro-1H-cyclopenta[d]pyrimidin-4(5H)-one] | –
11 | 53 | 67 | – | O=c1nc(SCc2ccc(F)cc2)n(Cc2nnc(CN3CCC(F)(F)C3)n2Cc2ccc(-c3ccc(C(F)(F)F)cc3)cc2)c2c1CCC2 [Example 104, 1-((5-((3,3-difluoropyrrolidin-1-yl)methyl)-4-((4′-(trifluoromethyl)biphenyl-4-yl)methyl)-4H-1,2,4-triazol-3-yl)methyl)-2-(4-fluorobenzylthio)-6,7-dihydro-1H-cyclopenta[d]pyrimidin-4(5H)-one] | inhibition at 0.1 µM (Lp-PLA2 in human serum; human serum): 86%
12 | 97 | – | – | O=c1nc(SCc2ccc(F)cc2)n(Cc2ncc(C[N+]3(Cc4ccc(F)cc4)CCCC3)n2Cc2ccc(-c3ccc(C(F)(F)F)cc3)cc2)c2c1CCC2 [Example 49, 1-(4-fluorobenzyl)-1-(2-((2-(4-fluorobenzylthio)-4-oxo-4,5,6,7-tetrahydro-1H-cyclopenta[d]pyrimidin-1-yl)methyl)-1-((4′-(trifluoromethyl)biphenyl-4-yl)methyl)-1H-imidazol-5-yl)methyl)pyrrolidinium bromide] | inhibition at 0.01 µM (Lp-PLA2 in human serum; [3]): > 80%; inhibition at 0.1 µM (Lp-PLA2 in human serum; human serum): 98%
13 | – | 53.1 | 90.7 | Cc1cnc(Cn2c(SCc3ccc(F)cc3)nc(=O)c3c2CCC3)n1Cc1ccc(-c2ccc(C(F)(F)F)cc2)cc1 [Example 40, 2-(4-fluorobenzylthio)-1-((5-methyl-1-((4′-(trifluoromethyl)biphenyl-4-yl)methyl)-1H-imidazol-2-yl)methyl)-6,7-dihydro-1H-cyclopenta[d]pyrimidin-4 (5H)-one] | –
14 | – | 57 | – | CCOC(=O)c1cnc(Cn2c(SCc3ccc(F)cc3)nc(=O)c3c2CCC3)n1Cc1ccc(-c2ccc(C(F)(F)F)cc2)cc1 [Example 50, ethyl 2-((2-(4-fluorobenzylthio)-4-oxo-4,5,6,7-tetrahydro-1H-cyclopenta[d]pyrimidin-1-yl)methyl)-1-((4′-(trifluoromethyl)biphenyl-4-yl)methyl)-1H-imidazole-5-carboxylate] | –
